According to the supplement of paper PMC10307832:

Tests used:
Assay in all cases: relative viability (nuclei count vs DMSO), 5 days (fraction); higher = more cells survive
[1] = compound: CC(C)C[C@H](NC(=O)[C@H](Cc1ccccc1)NC(=O)c1cnccn1)B(O)O [Bortezomib] + COc1cccc2cc(-c3nc([C@H]4CC[C@H](C(=O)O)CC4)n4ncnc(N)c34)[nH]c12 [OSI-027] (partner 0.5 µM)
Procedure, shortened: (§1)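 The day after seeding in 1536-well plates, lung cancer cell lines were treated by pin tool with a single drug, or with a fixed anchor-drug dose together with five library-drug doses (not always all listed) in √10 steps. After 5 days, a combined fix-and-stain solution (final 0.05% Triton X-100, 1% formaldehyde, 1 ug/ml Hoechst) was added. Nuclei counted on 4× images gave relative viability as treated counts over vehicle counts, reported as the median of duplicate plates.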

[2] = compound: COC1=CC(c2cc3ccccc3[nH]2)=N/C1=C\c1[nH]c(C)cc1C [Obatoclax] + N=C(N)NC(=N)NCCc1ccccc1 [Phenformin] (partner 250 µM)
Procedure, shortened: as §1

[3] = compound: COC1=CC(c2cc3ccccc3[nH]2)=N/C1=C\c1[nH]c(C)cc1C [Obatoclax] + Cc1nc(Nc2ncc(C(=O)Nc3c(C)cccc3Cl)s2)cc(N2CCN(CCO)CC2)n1 [Dasatinib] (partner 0.075 µM)
Procedure, shortened: as §1

[4] = compound: COC1=CC(c2cc3ccccc3[nH]2)=N/C1=C\c1[nH]c(C)cc1C [Obatoclax] + CS(=O)(=O)CCNCc1ccc(-c2ccc3ncnc(Nc4ccc(OCc5cccc(F)c5)c(Cl)c4)c3c2)o1 [Lapatinib] (partner 2 µM)
Procedure, shortened: as §1

NCI-H650
relative viability ([1]; first compound 0.000632 µM): 0.522
relative viability ([1]; first compound 0.002 µM): 0.536
relative viability ([1]; first compound 0.006325 µM): 0.595
relative viability ([1]; first compound 0.02 µM): 0.207
relative viability ([2]; first compound 0.01 µM): 0.454
relative viability ([2]; first compound 0.03162 µM): 0.395
relative viability ([2]; first compound 0.3162 µM): 0.314
relative viability ([2]; first compound 1 µM): 0.288
relative viability ([3]; first compound 0.01 µM): 0.451
relative viability ([3]; first compound 0.03162 µM): 0.431
relative viability ([3]; first compound 0.3162 µM): 0.279
relative viability ([3]; first compound 1 µM): 0.263
relative viability ([4]; first compound 0.01 µM): 1.04
relative viability ([4]; first compound 0.03162 µM): 0.811
relative viability ([4]; first compound 0.1 µM): 0.438
relative viability ([4]; first compound 0.3162 µM): 0.511
relative viability ([4]; first compound 1 µM): 0.457
